Patent US7879876B2, “Sulfonamide derivatives and use thereof for the modulation of metalloproteinases” (Merck Serono SA, priority 2005, dated 2011)

How the values were obtained:
Type in all cases: biochemical
human ADAM17 (TACE) = human ADAM17 (TACE) (Homo sapiens, UniProt P78536); test: TACE enzyme inhibition assay
Method in brief: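 Recombinant human ADAM17 was run in 20 mM HEPES pH 7.5 with 0.05% Brij 35, using Mca/Dnp-TNF-alpha(−5 to +6) amide substrate (5 μM solution), for 1.5 h at room temperature. Fluorescence (ex 355/em 405 nm) was read unstopped over ten concentrations (100 μM–0.01 nM). IC50 came from a four-parameter fit, rounded to one significant figure.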

[1] = molecular target: 92 kDa gelatinase (MMP-9) (Homo sapiens, UniProt P14780); test: MMP-9 enzyme inhibition assay (coumarin-labeled peptide substrate); conditions: @ 5 μM; read-out: percentage inhibition MMP9
Sequence of 92 kDa gelatinase (MMP-9) (P14780 107-707 limits assumed): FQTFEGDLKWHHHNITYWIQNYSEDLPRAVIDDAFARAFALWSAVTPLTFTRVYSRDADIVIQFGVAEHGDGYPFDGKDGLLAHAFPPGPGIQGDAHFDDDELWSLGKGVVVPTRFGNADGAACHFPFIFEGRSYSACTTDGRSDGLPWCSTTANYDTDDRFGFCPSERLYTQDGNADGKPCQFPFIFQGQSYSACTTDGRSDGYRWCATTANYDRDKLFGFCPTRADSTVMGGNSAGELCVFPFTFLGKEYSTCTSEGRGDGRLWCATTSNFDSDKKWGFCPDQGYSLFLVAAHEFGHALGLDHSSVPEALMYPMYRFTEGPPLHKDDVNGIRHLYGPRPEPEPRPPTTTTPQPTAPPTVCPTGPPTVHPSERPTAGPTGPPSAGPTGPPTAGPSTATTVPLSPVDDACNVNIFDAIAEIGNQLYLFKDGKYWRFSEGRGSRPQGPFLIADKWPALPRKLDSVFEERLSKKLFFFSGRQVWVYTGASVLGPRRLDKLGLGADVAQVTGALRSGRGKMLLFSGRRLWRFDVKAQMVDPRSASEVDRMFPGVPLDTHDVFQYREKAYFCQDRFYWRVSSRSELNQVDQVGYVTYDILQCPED
Method in brief: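 Recombinant human MMP-9 (APMA-activated if needed) was assayed in 100 mM Tris-HCl pH 7.6, 100 mM NaCl, 10 mM CaCl2, 0.05% Brij 35, with McaPLGLDpaAR substrate at 37° C. for 2 h. Fluorescence was read at ex 320/em 405 nm over ten 3-fold compound doses (100 μM–5.1 nM) in duplicate. IC50 came from a four-parameter fit.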

MMP-14 = MMP-14 (Homo sapiens, UniProt P50281); test: MMP-14 enzyme inhibition assay (coumarin-labelled peptide substrate); conditions: @ 5 μM; read-out: percentage inhibition MMP14
Method in brief: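 Recombinant human enzyme, APMA-activated if necessary, was incubated with McaPLGLDpaAR substrate and compound (10 concentrations in duplicate, 100 μM to 5.1 nM) in Tris-HCl pH 7.6 with NaCl, CaCl2 and Brij 35 for 2 h at 37 °C. Fluorescence was read at 320/405 nm, and IC50 was taken from a four-parameter fit.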

collagenase (MMP-1) = molecular target: T1, collagenase (MMP-1) (Homo sapiens, UniProt P03956); test: MMP-1 enzyme inhibition assay (coumarin-labelled peptide substrate); conditions: @ 5 μM; read-out: percentage inhibition MMP1
T1 sequence (P03956 100-469): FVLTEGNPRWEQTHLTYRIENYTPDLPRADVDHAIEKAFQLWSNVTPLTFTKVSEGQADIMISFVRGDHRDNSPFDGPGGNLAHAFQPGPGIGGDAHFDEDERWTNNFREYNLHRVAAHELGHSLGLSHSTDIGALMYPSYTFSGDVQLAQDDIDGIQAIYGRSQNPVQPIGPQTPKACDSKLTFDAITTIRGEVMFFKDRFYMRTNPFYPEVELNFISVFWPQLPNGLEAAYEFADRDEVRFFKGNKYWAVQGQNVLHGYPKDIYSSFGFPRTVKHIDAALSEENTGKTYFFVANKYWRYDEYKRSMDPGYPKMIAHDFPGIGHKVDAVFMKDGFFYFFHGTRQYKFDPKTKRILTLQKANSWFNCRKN
Method in brief: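 Recombinant human MMP-1, APMA-activated if needed, in Tris-HCl pH 7.6 with NaCl, CaCl2 and 0.05% Brij 35; McaPLGLDpaAR substrate added as 8 μM solution, 2 h at 37 °C. Fluorescence (320/405 nm) read without stopping; IC50 from 10 duplicate concentrations (100 μM–5.1 nM) by four-parameter fit.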

Sequence of human ADAM17 (TACE) (P78536 215-824): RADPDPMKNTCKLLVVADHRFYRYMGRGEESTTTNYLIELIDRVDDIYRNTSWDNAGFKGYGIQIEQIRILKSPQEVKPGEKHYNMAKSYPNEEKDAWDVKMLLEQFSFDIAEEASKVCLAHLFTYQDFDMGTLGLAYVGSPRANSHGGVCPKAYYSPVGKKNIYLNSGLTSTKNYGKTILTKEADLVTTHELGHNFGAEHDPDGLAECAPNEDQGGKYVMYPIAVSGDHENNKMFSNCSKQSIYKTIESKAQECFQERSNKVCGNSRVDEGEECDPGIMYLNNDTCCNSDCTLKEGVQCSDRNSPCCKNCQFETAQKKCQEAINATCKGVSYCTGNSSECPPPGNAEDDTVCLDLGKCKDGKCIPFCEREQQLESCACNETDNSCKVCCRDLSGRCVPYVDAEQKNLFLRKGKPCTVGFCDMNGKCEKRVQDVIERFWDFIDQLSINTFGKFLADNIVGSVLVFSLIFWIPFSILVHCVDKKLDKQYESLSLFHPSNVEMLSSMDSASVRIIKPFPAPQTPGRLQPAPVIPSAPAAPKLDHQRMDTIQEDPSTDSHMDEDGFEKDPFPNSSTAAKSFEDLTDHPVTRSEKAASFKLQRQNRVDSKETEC

Molecule `O=CN(O)C(CS(=O)(=O)N1CCc2cc(Cl)c(Cl)cc2C1)C1CCCC1` (stereo not shown) [Example 77, N-{1-cyclopentyl-2-[(6,7-dichloro-3,4-dihydroisoquinolin-2(1H)-yl)sulfonyl]ethyl}-N-hydroxyformamide] has an IC50 (human ADAM17 (TACE)) of 229 nM, an inhibition at 5 µM [1] of 35% and an inhibition at 5 µM (MMP-14) of 78%. It also gave an inhibition at 5 µM (collagenase (MMP-1)) of 17%.
